Reference: patent EP0465716A1, “Optically active thiazetoquino-line-3-carboxylic acid compound, method for preparation thereof, and a pharmaceutical composition comprising the same” (priority 1990, dated 1992)
Converted amounts (≈) assume the structure as drawn.

Assays:
Format in all cases: cell-based
[1] = system: Klebsiella pneumoniae PCI-602; assay: MIC, twofold agar dilution method (standard laboratory strain); conditions: PCI602; Klebsiella pneumoniae PCI-602, Gram -; 10^6 cfu/ml; 18 hrs at 37 °C; read-out: MIC
Description: (§1) Minimum inhibitory concentrations (MIC) of test compounds were determined by the twofold agar dilution method (Chemotherapy, 29(1), 76(1981)). Overnight cultures in Mueller-Hinton broth were suspended by buffered saline gelatin. One loopful of the bacterial suspension (10⁶ or 10⁸ colony-forming units/ml) was incubated onto the plates containing test compounds. The plates were incubated for 18 hrs at 37 °C. The MIC was defined by the lowest concentration of the drug that inhibited visible growth of bacteria.

[2] = system: Staphylococcuss aureus HPC 292; assay: MIC, twofold agar dilution method (clinically isolated strain); conditions: Staphylococcuss aureus HPC 292, Gram +; 10^6 cfu/ml; 18 hrs at 37 °C
Description: as §1, with “Overnight” for “Minimum inhibitory concentrations (MIC) of test compounds were determined by the twofold agar dilution method (Chemotherapy, 29(1), 76(1981)). Overnight”

[3] = system: Enterobacter cloacae HNR 1946; assay: as above; conditions: HNR1946; Enterobacter cloacae HNR 1946, Gram -; 10^6 cfu/ml; 18 hrs at 37 °C
Description: as §1, with “Overnight” for “Minimum inhibitory concentrations (MIC) of test compounds were determined by the twofold agar dilution method (Chemotherapy, 29(1), 76(1981)). Overnight”

[4] = system: Acinetobacter calcoaceticus HNR 916; assay: as above; conditions: HNR916; Acinetobacter calcoaceticus HNR 916, Gram -; 10^6 cfu/ml; 18 hrs at 37 °C
Description: as §1, with “Overnight” for “Minimum inhibitory concentrations (MIC) of test compounds were determined by the twofold agar dilution method (Chemotherapy, 29(1), 76(1981)). Overnight”

[5] = system: Enterobacter cloacae HNR 1941; assay: as above; conditions: HNR1941; Enterobacter cloacae HNR 1941, Gram -; 10^6 cfu/ml; 18 hrs at 37 °C
Description: as §1, with “Overnight” for “Minimum inhibitory concentrations (MIC) of test compounds were determined by the twofold agar dilution method (Chemotherapy, 29(1), 76(1981)). Overnight”

[6] = system: Enterococcus faecalis HPC 984; assay: as above; conditions: HPC984; Enterococcus faecalis HPC 984, Gram +; 10^6 cfu/ml; 18 hrs at 37 °C
Description: as §1, with “Overnight” for “Minimum inhibitory concentrations (MIC) of test compounds were determined by the twofold agar dilution method (Chemotherapy, 29(1), 76(1981)). Overnight”

[7] = system: Staphylococcuss aureus HPC 308; assay: as above; conditions: Staphylococcuss aureus HPC 308, Gram +; 10^6 cfu/ml; 18 hrs at 37 °C
Description: as §1, with “Overnight” for “Minimum inhibitory concentrations (MIC) of test compounds were determined by the twofold agar dilution method (Chemotherapy, 29(1), 76(1981)). Overnight”

[8] = system: Enterococcus faecalis HPC 975; assay: as above; conditions: HPC975; Enterococcus faecalis HPC 975, Gram +; 10^6 cfu/ml; 18 hrs at 37 °C
Description: as §1, with “Overnight” for “Minimum inhibitory concentrations (MIC) of test compounds were determined by the twofold agar dilution method (Chemotherapy, 29(1), 76(1981)). Overnight”

[9] = system: Klebsiella pneumoniae HNR 828; assay: as above; conditions: HNR828; Klebsiella pneumoniae HNR 828, Gram -; 10^6 cfu/ml; 18 hrs at 37 °C
Description: as §1, with “Overnight” for “Minimum inhibitory concentrations (MIC) of test compounds were determined by the twofold agar dilution method (Chemotherapy, 29(1), 76(1981)). Overnight”

[10] = system: Pseudomonas aeruginosa HNR 1537; assay: as above; conditions: HNR1537; Pseudomonas aeruginosa HNR 1537, Gram -; 10^6 cfu/ml; 18 hrs at 37 °C
Description: as §1, with “Overnight” for “Minimum inhibitory concentrations (MIC) of test compounds were determined by the twofold agar dilution method (Chemotherapy, 29(1), 76(1981)). Overnight”

[11] = system: Serratia marcescens HNR 1544; assay: as above; conditions: HNR1544; Serratia marcescens HNR 1544, Gram -; 10^6 cfu/ml; 18 hrs at 37 °C
Description: as §1, with “Overnight” for “Minimum inhibitory concentrations (MIC) of test compounds were determined by the twofold agar dilution method (Chemotherapy, 29(1), 76(1981)). Overnight”

[12] = system: Enterococcus faecalis HPC 948; assay: as above; conditions: HPC948; Enterococcus faecalis HPC 948, Gram +; 10^6 cfu/ml; 18 hrs at 37 °C
Description: as §1, with “Overnight” for “Minimum inhibitory concentrations (MIC) of test compounds were determined by the twofold agar dilution method (Chemotherapy, 29(1), 76(1981)). Overnight”

[13] = system: Klebsiella pneumoniae HNR 869; assay: as above; conditions: HNR869; Klebsiella pneumoniae HNR 869, Gram -; 10^6 cfu/ml; 18 hrs at 37 °C
Description: as §1, with “Overnight” for “Minimum inhibitory concentrations (MIC) of test compounds were determined by the twofold agar dilution method (Chemotherapy, 29(1), 76(1981)). Overnight”

[14] = system: Staphylococcuss aureus HPC 527; assay: as above; conditions: Staphylococcuss aureus HPC 527, Gram +; 10^6 cfu/ml; 18 hrs at 37 °C
Description: as §1, with “Overnight” for “Minimum inhibitory concentrations (MIC) of test compounds were determined by the twofold agar dilution method (Chemotherapy, 29(1), 76(1981)). Overnight”

[15] = system: Pseudomonas aeruginosa HNR 1489; assay: as above; conditions: HNR1489; Pseudomonas aeruginosa HNR 1489, Gram -; 10^6 cfu/ml; 18 hrs at 37 °C
Description: as §1, with “Overnight” for “Minimum inhibitory concentrations (MIC) of test compounds were determined by the twofold agar dilution method (Chemotherapy, 29(1), 76(1981)). Overnight”

[16] = system: Enterobacter cloacae HNR 1939; assay: as above; conditions: HNR1939; Enterobacter cloacae HNR 1939, Gram -; 10^6 cfu/ml; 18 hrs at 37 °C
Description: as §1, with “Overnight” for “Minimum inhibitory concentrations (MIC) of test compounds were determined by the twofold agar dilution method (Chemotherapy, 29(1), 76(1981)). Overnight”

[17] = system: Acinetobacter calcoaceticus HNR 904; assay: as above; conditions: HNR904; Acinetobacter calcoaceticus HNR 904, Gram -; 10^6 cfu/ml; 18 hrs at 37 °C
Description: as §1, with “Overnight” for “Minimum inhibitory concentrations (MIC) of test compounds were determined by the twofold agar dilution method (Chemotherapy, 29(1), 76(1981)). Overnight”

[18] = system: Serratia marcescens HNR 1767; assay: as above; conditions: HNR1767; Serratia marcescens HNR 1767, Gram -; 10^6 cfu/ml; 18 hrs at 37 °C
Description: as §1, with “Overnight” for “Minimum inhibitory concentrations (MIC) of test compounds were determined by the twofold agar dilution method (Chemotherapy, 29(1), 76(1981)). Overnight”

[19] = system: Pseudomonas aeruginosa HNR 1472; assay: as above; conditions: HNR1472; Pseudomonas aeruginosa HNR 1472, Gram -; 10^6 cfu/ml; 18 hrs at 37 °C
Description: as §1, with “Overnight” for “Minimum inhibitory concentrations (MIC) of test compounds were determined by the twofold agar dilution method (Chemotherapy, 29(1), 76(1981)). Overnight”

[20] = system: Acinetobacter calcoaceticus HNR 939; assay: as above; conditions: HNR939; Acinetobacter calcoaceticus HNR 939, Gram -; 10^6 cfu/ml; 18 hrs at 37 °C
Description: as §1, with “Overnight” for “Minimum inhibitory concentrations (MIC) of test compounds were determined by the twofold agar dilution method (Chemotherapy, 29(1), 76(1981)). Overnight”

[21] = system: Serratia marcescens HNR 1792; assay: as above; conditions: HNR1792; Serratia marcescens HNR 1792, Gram -; 10^6 cfu/ml; 18 hrs at 37 °C
Description: as §1, with “Overnight” for “Minimum inhibitory concentrations (MIC) of test compounds were determined by the twofold agar dilution method (Chemotherapy, 29(1), 76(1981)). Overnight”

[22] = system: Klebsiella pneumoniae HNR 858; assay: as above; conditions: HNR858; Klebsiella pneumoniae HNR 858, Gram -; 10^6 cfu/ml; 18 hrs at 37 °C
Description: as §1, with “Overnight” for “Minimum inhibitory concentrations (MIC) of test compounds were determined by the twofold agar dilution method (Chemotherapy, 29(1), 76(1981)). Overnight”

[23] = system: Staphylococuss aureus FDA 209PJC-1; assay: MIC, twofold agar dilution method (standard laboratory strain); conditions: Staphylococuss aureus FDA 209PJC-1, Gram +; 10^6 cfu/ml; 18 hrs at 37 °C
Description: as §1, with “Overnight” for “Minimum inhibitory concentrations (MIC) of test compounds were determined by the twofold agar dilution method (Chemotherapy, 29(1), 76(1981)). Overnight”

[24] = system: Pseudomonas aeruginosa IFO 3445; assay: as above; conditions: IFO3445; Pseudomonas aeruginosa IFO 3445, Gram -; 10^6 cfu/ml; 18 hrs at 37 °C
Description: as §1, with “Overnight” for “Minimum inhibitory concentrations (MIC) of test compounds were determined by the twofold agar dilution method (Chemotherapy, 29(1), 76(1981)). Overnight”

[25] = system: Escherichia coli NIHJ JC-2; assay: as above; conditions: NIHJJC2; Escherichia coli NIHJ JC-2, Gram -; 10^6 cfu/ml; 18 hrs at 37 °C
Description: as §1, with “Overnight” for “Minimum inhibitory concentrations (MIC) of test compounds were determined by the twofold agar dilution method (Chemotherapy, 29(1), 76(1981)). Overnight”

[26] = system: Enterobacter cloacae 963; assay: as above; conditions: Enterobacter cloacae 963, Gram -; 10^6 cfu/ml; 18 hrs at 37 °C
Description: as §1, with “Overnight” for “Minimum inhibitory concentrations (MIC) of test compounds were determined by the twofold agar dilution method (Chemotherapy, 29(1), 76(1981)). Overnight”

[27] = system: Serratia marcescens IAM 1184; assay: as above; conditions: IAM1184; Serratia marcescens IAM 1184, Gram -; 10^6 cfu/ml; 18 hrs at 37 °C
Description: as §1, with “Overnight” for “Minimum inhibitory concentrations (MIC) of test compounds were determined by the twofold agar dilution method (Chemotherapy, 29(1), 76(1981)). Overnight”

| MIC [1] [µg/mL] | MIC [2] [µg/mL] | MIC [3] [µg/mL] | MIC [4] [µg/mL] | MIC [5] [µg/mL] | MIC [6] [µg/mL] | MIC [7] [µg/mL] | MIC [8] [µg/mL] | MIC [9] [µg/mL] | MIC [10] [µg/mL] | MIC [11] [µg/mL] | MIC [12] [µg/mL] | MIC [13] [µg/mL] | MIC [14] [µg/mL] | MIC [15] [µg/mL] | MIC [16] [µg/mL] | MIC [17] [µg/mL] | MIC [18] [µg/mL] | MIC [19] [µg/mL] | MIC [20] [µg/mL] | SMILES | further results |
| --- | --- | --- | --- | --- | --- | --- | --- | --- | --- | --- | --- | --- | --- | --- | --- | --- | --- | --- | --- | --- | --- |
| 0.012 (≈ 0.0343 µM) | 50 (≈ 143 µM) | 0.39 (≈ 1.12 µM) | 0.78 (≈ 2.23 µM) | 12.5 (≈ 35.8 µM) | 0.78 (≈ 2.23 µM) | 25 (≈ 71.6 µM) | 50 (≈ 143 µM) | 1.56 (≈ 4.46 µM) | 6.25 (≈ 17.9 µM) | 0.05 (≈ 0.143 µM) | 6.25 (≈ 17.9 µM) | 0.78 (≈ 2.23 µM) | 0.39 (≈ 1.12 µM) | 0.1 (≈ 0.286 µM) | 0.2 (≈ 0.572 µM) | > 100 | 50 (≈ 143 µM) | 6.25 (≈ 17.9 µM) | 6.25 (≈ 17.9 µM) | CC1Sc2c(C(=O)O)c(=O)c3cc(F)c(N4CCNCC4)cc3n21 (stereo not drawn) [Ref. Drug B, 6-fluoro-1-methyl-4-oxo-7-(1-piperazinyl)-1H,4H-[1,3]thiazeto[3,2-a]quinoline-3-carboxylic acid] | MIC [21]: 6.25 µg/mL (≈ 17.9 µM); MIC [22]: 0.2 µg/mL (≈ 0.572 µM); MIC [23]: 0.1 µg/mL (≈ 0.286 µM); MIC [24]: 0.2 µg/mL (≈ 0.572 µM); MIC [25]: 0.025 µg/mL (≈ 0.0716 µM); MIC [26]: 0.05 µg/mL (≈ 0.143 µM); MIC [27]: 0.05 µg/mL (≈ 0.143 µM) |
| 0.05 (≈ 0.142 µM) | > 100 | 1.56 (≈ 4.41 µM) | 0.39 (≈ 1.1 µM) | > 100 | 0.78 (≈ 2.21 µM) | 100 (≈ 283 µM) | > 100 | 50 (≈ 142 µM) | > 100 | 0.1 (≈ 0.283 µM) | 50 (≈ 142 µM) | 50 (≈ 142 µM) | 0.2 (≈ 0.566 µM) | 0.39 (≈ 1.1 µM) | 0.78 (≈ 2.21 µM) | > 100 | > 100 | > 100 | > 100 | NC1CCN(c2c(F)cc3c(=O)c(C(=O)O)c4n(c3c2F)CS4)C1 (stereo not drawn) [Ref. Drug E, 7-(3-amino-1-pyrrolidinyl)-6,8-difluoro-4-oxo-1H,4H-[1,3]thiazeto[3,2-a]quinoline-3-carboxylic acid] | MIC [21]: > 100 µg/mL; MIC [22]: 0.78 µg/mL (≈ 2.21 µM); MIC [23]: 0.1 µg/mL (≈ 0.283 µM); MIC [24]: 0.2 µg/mL (≈ 0.566 µM); MIC [25]: 0.1 µg/mL (≈ 0.283 µM); MIC [26]: 0.1 µg/mL (≈ 0.283 µM); MIC [27]: 0.2 µg/mL (≈ 0.566 µM) |
